Measured values from US8013137B2, “Modified enteropeptidase protein” (National University Corporation Hokkaido University, priority 2006, dated 2011).
Read-outs that look alike come from different tables or passages of the source. Values belong to the molecule of their own block, whether it stands above or below them. Non-standard residues stand in square brackets, D forms with d. Residues, ends and D or L forms follow the SMILES beside them. *: point of attachment. Sta = CC(C)C[C@H](N)[C@@H](O)CC(=O)O; Isovaleryl = CC(C)CC(=O)*

Tests used:
medaka EP-1 protease = test: Inhibitor assay, enzyme activity measured using GD4K-βNA as a substrate; format: biochemical, medaka (Oryzias latipes)
medaka EP-2 protease = test: as above; format: biochemical, medaka (Oryzias latipes)
[1] = target: T1, medaka EP-1 enteropeptidase serine protease domain, wild type, SEQ ID NO: 2 (Oryzias latipes, UniProt A4UWM5); test: Inhibitor assay, EP-1 protease activity on GD4K-βNA; format: biochemical, Japanese Medaka (Oryzias latipes); conditions: pH 7.4
T1 sequence (A4UWM5 795-1036): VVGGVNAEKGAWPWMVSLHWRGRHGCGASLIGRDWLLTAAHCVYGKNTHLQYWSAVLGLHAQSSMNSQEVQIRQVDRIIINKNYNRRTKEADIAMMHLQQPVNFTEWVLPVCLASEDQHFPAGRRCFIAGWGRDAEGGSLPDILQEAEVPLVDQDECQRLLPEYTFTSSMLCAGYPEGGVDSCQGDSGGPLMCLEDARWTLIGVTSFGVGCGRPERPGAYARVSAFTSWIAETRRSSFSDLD

[2] = target: medaka EP-2 enteropeptidase serine protease domain, wild type (EP-2, SEQ ID NO: 72) (Oryzias latipes, UniProt A4UWM6); test: Inhibitor assay, EP-2 protease activity on GD4K-βNA; format: biochemical, Japanese Medaka (Oryzias latipes); conditions: pH 7.4
[3] = inhibitor 1.0 mM, GD4K-βNA substrate, 10 min preincubation
[4] = 0.2 mM inhibitor, GD4K-βNA substrate, 10 min preincubation
[5] = inhibitor 0.01 mg/ml, GD4K-βNA substrate, 10 min preincubation
[6] = inhibitor 0.1 mM, GD4K-βNA substrate, 10 min preincubation

Sequence of medaka EP-2 enteropeptidase serine protease domain, wild type (EP-2, SEQ ID NO: 72) (A4UWM6 802-1043): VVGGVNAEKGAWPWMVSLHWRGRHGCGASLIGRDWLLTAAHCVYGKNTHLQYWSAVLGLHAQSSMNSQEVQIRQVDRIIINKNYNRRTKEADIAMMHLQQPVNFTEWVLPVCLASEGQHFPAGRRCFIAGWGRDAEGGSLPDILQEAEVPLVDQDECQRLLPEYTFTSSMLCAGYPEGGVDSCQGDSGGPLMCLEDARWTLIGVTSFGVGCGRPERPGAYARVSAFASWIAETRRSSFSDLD

Molecule: CC(C)C[C@H](NC(=O)[C@@H](NC(=O)N[C@@H](Cc1ccccc1)C(=O)O)[C@@H]1CCN=C(N)N1)C(=O)N[C@H](C=O)Cc1ccccc1 [Chymostatin]
Inhibition (%) EP-1 (medaka EP-1 protease): 0%
Inhibition (%) EP-2 (medaka EP-2 protease): 0%

Molecule: O=C(O)CN(CCN(CC(=O)O)CC(=O)O)CC(=O)O [EDTA]
inhibition at 5000 µM [1]: 5%
inhibition at 5000 µM [2]: 10%

Molecule: Aprotinin
Inhibition (%) EP-1 (medaka EP-1 protease; [5]): 0%
Inhibition (%) EP-2 (medaka EP-2 protease; [5]): 5%

Molecule: CC(=O)N[C@@H](CC(C)C)C(=O)N[C@@H](CC(C)C)C(=O)N[C@H](C=O)CCCNC(=N)N [Leupeptin]
Inhibition (%) EP-1 (medaka EP-1 protease): 43%
Inhibition (%) EP-2 (medaka EP-2 protease): 47%

Other lines, results leading:

Inhibition (%) EP-1 (medaka EP-1 protease; [3]): 79%
Inhibition (%) EP-2 (medaka EP-2 protease; [3]): 78%
Molecule: N=C(N)c1ccccc1 [Benzamidine]

inhibition at 200 µM [1, 4]: 0%
inhibition at 200 µM [2, 4]: 0%
Molecule: CC(C)C[C@H](NC(=O)[C@H]1O[C@@H]1C(=O)O)C(=O)NCCCCN=C(N)N [E-64]

Inhibition (%) EP-1 (medaka EP-1 protease; [6]): 0%
Inhibition (%) EP-2 (medaka EP-2 protease; [6]): 3%
Molecule: CC(C)CC(=O)N[C@H](C(=O)N[C@H](C(=O)N[C@@H](CC(C)C)[C@@H](O)CC(=O)N[C@@H](C)C(=O)N[C@@H](CC(C)C)[C@@H](O)CC(=O)O)C(C)C)C(C)C [Pepstatin] (Isovaleryl-VV[Sta]A[Sta]-OH)
